These are literature values, as cited in patent US20240091144A1, “MULTI-LAYER ORAL THIN FILM” (LTS Lohmann Therapie-Systeme AG, priority 2021, published 2024).

For data set [1] the following is noted: compared with (R)-ketamine.
The conditions of data set [2]: at 20° C.

For `CNC1(c2ccccc2Cl)CCCCC1=O` (racemic) [(S)-ketamine, (S)-(±)-2-(2-chlorophenyl)-2-(methylamino)cyclohexan-1-one], the “analgesic and anaesthetic potency relative to the (R) form” value in data set [1] was “approximately three times higher”.

Consider `NC(CO)(CO)CO` [TRIS, tris(hydroxymethyl)aminomethane], for which the pKs in data set [2] is listed as 8.2.
